The source of these data is patent US20200038438A1, “ANGSTROM SILVER INJECTION FOR CANCER INHIBITION, PREPARATION METHOD AND APPLICATION THEREOF” (Shenzhen AMCAN Medical Biotechnology Limited, priority 2018, published 2020).

For one assay, the system named is tumor tissue cell, NSCLC. The experiment in a line: 3D drug susceptibility detection (three-dimensional co-culture system), NSCLC patient. Format: cell-based, human. The source says: A third exemplary embodiment is shown below. • 3D drug susceptibility detection result
Assay [1] concerns tumor tissue cell, Liver cancer. Nature of the assay: 3D drug susceptibility detection (three-dimensional co-culture system), liver cancer patient. Format: cell-based, human. The settings on record: person. From the text:
A second exemplary embodiment is shown below. • 3D drug susceptibility detection result

For assay [2], the system named is tumor tissue cell, Lung Tumor. Nature of the assay: 3D drug susceptibility detection (three-dimensional co-culture system), lung tumor patient. The settings on record: serial No. 0018. Format: cell-based, human. From the text: A fourth exemplary embodiment is shown below. • 3D drug susceptibility detection result
In assay [3] the test system is human hepatocellular carcinoma cells HepG2. Nature of the assay: CellTiter-Glo cell viability, 72 hours. Format: cell-based. Particulars: duplicate wells. The source says: (§1) A first exemplary embodiment is shown a detection of the angstrom silver on a proliferation influence of human non-small cell lung cancer cells A549 and human hepatocellular carcinoma cells HepG2.
(§2) Reagents and consumables shown below: 1. HepG2, provided by HD Biosciences (Shanghai) Co., Ltd., and passed a mycoplasma detection; 2, F 12K culture medium, American Gibco, Art. No.: 21127-022; 3. EMEM culture medium, American ATCC, Art. No.: 30-2003; 4. Fetal bovine serum (FBS), American Hyclone, Art. No.: CH30160.03; 5. Penicillin-streptomycin liquid, American Invitrogen, Art. No.: CH15140-122; 6. DG-5 (25 Ang) and DG-5 solvents, DG-6 (25 Ang) and DG-6 solvents respectively provided by Shenzhen AMCAN Medical Biotechnology Limited; 7. […] DMSO, American Sigma, Art. No.: D4540; 9. 96-well cell culture plate, American Corning, Art. No.: 3610; 10. CellTiter-Glo Luminescent Cell Viability Assay, American Promega, Art. No.: G7571; 11. Plate reader, American Perkin Elmer, EnVision Multilabel Plate Reader.
(§3) Cell culture medium: 1. A549 culture medium: including 10% fetal bovine serum and F 12K culture medium with 100 U penicillin and 100 μg/mL streptomycin; 2. HepG2 culture medium: including 10% fetal bovine serum and EMEM culture medium with 100 U penicillin and 100 μg/mL streptomycin.
(§4) 3. Only before starting an experiment, in the sterile condition, the prepared dg-5 gradient concentration solution is diluted 2 times by full cell culture medium. At this time, the gradient concentration of a compound to be measured includes 150 ppm, 15 ppm, 1.5 ppm, 0.15 ppm and 0.015 ppm, which is a 2-by-compound solution to be used to treat cells.
(§5) 4. Only before starting the experiment, in the sterile condition, the prepared dg-5 gradient concentration solution was diluted 100 times by the full cell culture medium. At this time, the gradient concentration of the compound to be measured includes 2 μM, 200 nM, 20 nM, 2 nM and 0.2 nM, which is a 2-by-compound solution to be used to treat cells.
(§6) 1. The cell is inoculated in a 96-well cell culture plate the day before the treatment of the compound, while an inoculation density is shown in the experimental design above, and an inoculation volume was 100 μL per hole.
(§7) 2. The next day, the prepared 2-by-compound solution is added to the 96-well cell culture plate according to an arrangement diagram of the compound, and each hole is added to 100 μL.
(§8) 3. Gently oscillating the 96-well cell culture plate and placing it in a 37° C. incubator to continue cultivating for 72 hours.
(§9) 4. After reaching a designated incubation time, a prepared reagent is added to the 96-well cell culture plate according to a CellTiterGlo's reagent specification, and then it is fully blended under a room temperature, finally avoid light incubation for 10 minutes.
(§10) 5. Placing the 96-well cell culture plate in a plate reader to analyze it, and setting it to read chemical luminescence and record data.
(§11) Readout in each hole needs to be converted to a cell viability. The cell viability can be calculated by the following formula: […]
For orientation: Cellular ATP, detected with luciferase, serves as a proxy for viable cell number.

Assay [4] relates to human non-small cell lung cancer cells A549. Nature of the assay: CellTiter-Glo cell viability, 72 hours. Format: cell-based. Particulars: duplicate wells.
Description: as §1, §2, §3, §4, §5, §6, §7, §8, §9, §10, §11

Structures are written as SMILES. “And” between values parts separate entries of the source, which are not always exact repeats. Equal values may be shown once.

On to `O=c1[nH]cc(F)c(=O)[nH]1` [5-fluorouracil], for which the “drug efficacy, 3D drug susceptibility detection” value (“drug efficacy” below) is on record as “worst group of efficacy” in the assay with tumor tissue cell, NSCLC (serial No. 0015); “Ineffective” in assay [1]; “worst group of efficacy” in assay [2].

Regarding `C=CC(=O)Nc1cc(Nc2nccc(-c3cn(C)c4ccccc34)n2)c(OC)cc1N(C)CCN(C)C` [AZD9291], the “drug efficacy” value is on record as “best group of efficacy” in the assay on tumor tissue cell, NSCLC (serial No. 0015) and “best group of efficacy” in assay [2].

`CN[C@@H]1C[C@H]2O[C@@](C)([C@@H]1OC)n1c3ccccc3c3c4c(c5c6ccccc6n2c5c31)C(=O)NC4` [STSP]: the “Percentage of cell growth” value in assay [3] (HepG2, 0.1 nM) was 109.0% and 103.4%; in assay [3] (HepG2, 1 nM), 88.4% and 86.2%; in assay [3] (HepG2, 100 nM), 17.5% and 22.2%; in assay [3] (HepG2, 1000 nM), 9.7% and 11.2%; in assay [4] (A549, 0.1 nM) it was 124.6% and 126.9%; in assay [4] (A549, 1 nM) it was 99.8% and 99.2%. Also, the “Percentage of cell growth” value in assay [4] (A549, 10 nM) is 68.8% and 68.5%; in assay [4] (A549, 100 nM), 28.5%.

With `N.N.O=C([O-])C1(C(=O)[O-])CCC1.[Pt+2]` [carboplatin], the “drug efficacy” value in assay [1] was “Ineffective”.

With `CC(=O)O[C@@]12CO[C@@H]1C[C@H](O)[C@@]1(C)C(=O)[C@H](O)C3=C(C)[C@@H](OC(=O)[C@H](O)[C@@H](NC(=O)OC(C)(C)C)c4ccccc4)C[C@@](O)([C@@H](OC(=O)c4ccccc4)[C@H]21)C3(C)C` [docetaxel], the “drug efficacy” value in assay [1] is “second efficacy”.

In the case of `C#Cc1cccc(Nc2ncnc3cc(OCCOC)c(OCCOC)cc23)c1` [erlotinib], the “drug efficacy” value with tumor tissue cell, NSCLC (serial No. 0015) is listed as “worst group of efficacy”; in assay [2] it was “worst group of efficacy”.

Take `COc1cc2ncnc(Nc3ccc(F)c(Cl)c3)c2cc1OCCCN1CCOCC1` [gefitinib]: the “drug efficacy” value in the assay on tumor tissue cell, NSCLC (serial No. 0015) is recorded as “worst group of efficacy”; in assay [2] it was “worst group of efficacy”.

Turning to `Nc1ccn([C@@H]2O[C@H](CO)[C@@H](O)C2(F)F)c(=O)n1` [gemcitabine], the “drug efficacy” value with tumor tissue cell, NSCLC (serial No. 0015) was “best group of efficacy”.

In the case of `Cc1ccc(NC(=O)c2ccc(CN3CCN(C)CC3)cc2)cc1Nc1nccc(-c2cccnc2)n1` [imatinib], the “drug efficacy” value in assay [1] was “better”.

Consider `CC(=O)O[C@H]1C(=O)[C@@]2(C)[C@H]([C@H](OC(=O)c3ccccc3)[C@]3(O)C[C@H](OC(=O)[C@H](O)[C@@H](NC(=O)c4ccccc4)c4ccccc4)C(C)=C1C3(C)C)[C@]1(OC(C)=O)CO[C@@H]1C[C@@H]2O` [paclitaxel], for which the “drug efficacy” value in assay [1] is given as “second efficacy”.

For the compound `Nc1nc2[nH]cc(CCc3ccc(C(=O)N[C@@H](CCC(=O)O)C(=O)O)cc3)c2c(=O)[nH]1` [pemetrexed], the “drug efficacy” value in the assay with tumor tissue cell, NSCLC (serial No. 0015) is “worst group of efficacy”; in the assay on tumor tissue cell, NSCLC (serial No. 0015, listed as permetrexed), “very poor efficacy”; in assay [1] it was “Ineffective”; in assay [2] it was “worst group of efficacy”.

As to `CNC(=O)c1cc(Oc2ccc(NC(=O)Nc3ccc(Cl)c(C(F)(F)F)c3)cc2)ccn1` [sorafenib], in assay [1], the “drug efficacy” value is “Ineffective”.
